Test system: MV-4-11 cells
Assay: Gene expression microarray analysis (Affymetrix PrimeView) and GSEA
Assay type: cell-based, human
Parameters: RFU PODN (11730768_x_at) / Fold change /veh PODN (11730768_x_at) / RFU LINC00158 (11744669_a_at) / Fold change /veh LINC00158 (11744669_a_at) / RFU DUSP10 (11751237_a_at) / Fold change /veh DUSP10 (11751237_a_at) / RFU ID3 (11757404_x_at) / Fold change /veh ID3 (11757404_x_at) / RFU PLEKHG5 (11737974_s_at) / Fold change /veh PLEKHG5 (11737974_s_at) / RFU LRRC4B (11730491_at) / Fold change /veh LRRC4B (11730491_at) / RFU GIMAP4 (11747438_a_at) / Fold change /veh GIMAP4 (11747438_a_at) / RFU KRT8 (11758183_x_at) / Fold change /veh KRT8 (11758183_x_at) / RFU CNN1 (11734310_a_at) / Fold change /veh CNN1 (11734310_a_at) / RFU VPS37D (11726825_at) / Fold change /veh VPS37D (11726825_at) / RFU C10orf10 (11716522_x_at) / Fold change /veh C10orf10 (11716522_x_at) / RFU KIR2DL2 /// KIR2DL4 /// KIR2DL5A /// KIR2DL5B /// KIR2DS1 /// KIR2DS2 /// KIR2DS3 /// KIR2DS4 /// KIR3DL3 /// KIR3DL3 /// KIR3DS1 (11738374_at) / Fold change /veh KIR2DL2 /// KIR2DL4 /// KIR2DL5A /// KIR2DL5B /// KIR2DS1 /// KIR2DS2 /// KIR2DS3 /// KIR2DS4 /// KIR3DL3 /// KIR3DL3 /// KIR3DS1 (11738374_at) / RFU C1QL1 (11718748_at) / Fold change /veh C1QL1 (11718748_at) / RFU TMPRSS4 (11747572_a_at) / Fold change /veh TMPRSS4 (11747572_a_at) / RFU HAMP (11756126_x_at) / Fold change /veh HAMP (11756126_x_at) / RFU RNFT2 (11725882_a_at) / Fold change /veh RNFT2 (11725882_a_at) / RFU NR4A2 (11747474_a_at) / Fold change /veh NR4A2 (11747474_a_at) / RFU ABCC12 (11746883_a_at) / Fold change /veh ABCC12 (11746883_a_at) / RFU TMEM136 (11760407_x_at) / Fold change /veh TMEM136 (11760407_x_at) / RFU CLDN22 /// WWC2 (11732394_at) / Fold change /veh CLDN22 /// WWC2 (11732394_at) / RFU HLA-DPB1 (11760878_x_at) / Fold change /veh HLA-DPB1 (11760878_x_at) / RFU SPINT1 (11716480_a_at) / Fold change /veh SPINT1 (11716480_a_at) / RFU GAP43 (11754022_s_at) / Fold change /veh GAP43 (11754022_s_at) / RFU A4GNT (11735810_at) / Fold change /veh A4GNT (11735810_at) / RFU PRB3 (11715151_x_at) / Fold change /veh PRB3 (11715151_x_at) / RFU TUBB4B (11761932_at) / Fold change /veh TUBB4B (11761932_at) / RFU CAPN14 (11732068_a_at) / Fold change /veh CAPN14 (11732068_a_at) / RFU TMCC2 (11721928_a_at) / Fold change /veh TMCC2 (11721928_a_at) / RFU IRGQ (11745062_a_at) / Fold change /veh IRGQ (11745062_a_at) / RFU FAM174B (11720279_a_at) / Fold change /veh FAM174B (11720279_a_at) / RFU TMPRSS4 (11748680_a_at) / Fold change /veh TMPRSS4 (11748680_a_at) / RFU FAM212B (11763350_a_at) / Fold change /veh FAM212B (11763350_a_at) / RFU PLEKHG5 (11743358_a_at) / Fold change /veh PLEKHG5 (11743358_a_at) / RFU ZSCAN30 (11745921_a_at) / Fold change /veh ZSCAN30 (11745921_a_at) / RFU CMKLR1 (11741424_a_at) / Fold change /veh CMKLR1 (11741424_a_at) / RFU LOC101060620 /// MAPK8IP1 (11723275_at) / Fold change /veh LOC101060620 /// MAPK8IP1 (11723275_at) / RFU SPTSSB (11747773_x_at) / Fold change /veh SPTSSB (11747773_x_at) / RFU PRSS12 (11739890_at) / Fold change /veh PRSS12 (11739890_at) / RFU BIN1 (11741810_x_at) / Fold change /veh BIN1 (11741810_x_at) / RFU WNT11 (11732464_a_at) / Fold change /veh WNT11 (11732464_a_at) / RFU C10orf10 (11716521_a_at) / Fold change /veh C10orf10 (11716521_a_at) / RFU C5orf56 (11738089_at) / Fold change /veh C5orf56 (11738089_at) / RFU CYB561 (11721691_x_at) / Fold change /veh CYB561 (11721691_x_at) / RFU ANKRD19P (11752326_a_at) / Fold change /veh ANKRD19P (11752326_a_at) / RFU OR2T12 /// OR2T33 /// OR2T8 (11738714_s_at) / Fold change /veh OR2T12 /// OR2T33 /// OR2T8 (11738714_s_at) / RFU VCAN (11748164_a_at) / Fold change /veh VCAN (11748164_a_at) / RFU JSRP1 (11732532_at) / Fold change /veh JSRP1 (11732532_at) / RFU KRTAP10-11 (11738290_x_at) / Fold change /veh KRTAP10-11 (11738290_x_at) / RFU MYO3A (11730013_a_at) / Fold change /veh MYO3A (11730013_a_at) / RFU EBF3 (11725865_a_at) / Fold change /veh EBF3 (11725865_a_at) / RFU CAMK2N1 (11719241_x_at) / Fold change /veh CAMK2N1 (11719241_x_at) / RFU C5orf56 (11738088_a_at) / Fold change /veh C5orf56 (11738088_a_at) / RFU OLFML3 (11715873_a_at) / Fold change /veh OLFML3 (11715873_a_at) / RFU LOC100653217 /// NTM (11731650_a_at) / Fold change /veh LOC100653217 /// NTM (11731650_a_at) / RFU MAPK11 (11762145_a_at) / Fold change /veh MAPK11 (11762145_a_at) / RFU FIZ1 (11724087_x_at) / Fold change /veh FIZ1 (11724087_x_at) / RFU OASL (11726364_x_at) / Fold change /veh OASL (11726364_x_at) / RFU SOX15 (11748057_x_at) / Fold change /veh SOX15 (11748057_x_at) / RFU CD79A (11719716_a_at) / Fold change /veh CD79A (11719716_a_at) / RFU HIST1H1D (11736915_at) / Fold change /veh HIST1H1D (11736915_at) / RFU CASKIN2 (11723855_a_at) / Fold change /veh CASKIN2 (11723855_a_at) / RFU LOC730098 (11760151_x_at) / Fold change /veh LOC730098 (11760151_x_at) / RFU OR4N2 (11742367_at) / Fold change /veh OR4N2 (11742367_at) / RFU PRRT2 (11749266_a_at) / Fold change /veh PRRT2 (11749266_a_at) / RFU SNX32 (11753110_a_at) / Fold change /veh SNX32 (11753110_a_at) / RFU CDHR5 (11726645_a_at) / Fold change /veh CDHR5 (11726645_a_at) / RFU RCAN1 (11760418_a_at) / Fold change /veh RCAN1 (11760418_a_at) / RFU FAM167A (11723789_a_at) / Fold change /veh FAM167A (11723789_a_at) / RFU FAM26E (11764081_at) / Fold change /veh FAM26E (11764081_at) / RFU ISYNA1 (11749810_s_at) / Fold change /veh ISYNA1 (11749810_s_at) / RFU ACY1 (11761880_at) / Fold change /veh ACY1 (11761880_at) / RFU 11764098_at / Fold change /veh 11764098_at / RFU SAMD14 (11745864_x_at) / Fold change /veh SAMD14 (11745864_x_at) / RFU NPB (11741838_a_at) / Fold change /veh NPB (11741838_a_at) / RFU TMPRSS6 (11731388_a_at) / Fold change /veh TMPRSS6 (11731388_a_at) / RFU KRTAP10-2 (11738614_at) / Fold change /veh KRTAP10-2 (11738614_at) / RFU ARHGAP8 /// PRR5-ARHGAP8 (11727945_x_at) / Fold change /veh ARHGAP8 /// PRR5-ARHGAP8 (11727945_x_at) / RFU KRTAP5-7 /// NADSYN1 (11734609_at) / Fold change /veh KRTAP5-7 /// NADSYN1 (11734609_at) / RFU RASL12 (11751679_a_at) / Fold change /veh RASL12 (11751679_a_at) / RFU CDKN2B (11736163_a_at) / Fold change /veh CDKN2B (11736163_a_at) / RFU PRF1 (11729649_at) / Fold change /veh PRF1 (11729649_at) / RFU, ZNF638 /// ZNF638-IT1 / Fold change vs veh, ZNF638 /// ZNF638-IT1 / RFU, PANK3 / Fold change vs veh, PANK3 / RFU, SH3YL1 / Fold change vs veh, SH3YL1 / RFU, ZEB2 / Fold change vs veh, ZEB2 / RFU, NRIP1 / Fold change vs veh, NRIP1 / RFU, PTTG1IP / Fold change vs veh, PTTG1IP / RFU, CAPN2 / Fold change vs veh, CAPN2 / RFU, MED14 / Fold change vs veh, MED14 / RFU, SNORA58 / Fold change vs veh, SNORA58 / RFU, C1orf63 / Fold change vs veh, C1orf63 / RFU, LRRFIP1 / Fold change vs veh, LRRFIP1 / RFU, NDUFAF7 / Fold change vs veh, NDUFAF7 / RFU, SLC12A2 / Fold change vs veh, SLC12A2 / RFU, IBTK / Fold change vs veh, IBTK / RFU, ESF1 / Fold change vs veh, ESF1 / Fold change vs veh, TMEM50B / RFU, TAOK1 / Fold change vs veh, TAOK1 / RFU, ACBD3 / Fold change vs veh, ACBD3 / RFU, TMA16 / Fold change vs veh, TMA16 / RFU, RWDD3 / Fold change vs veh, RWDD3 / RFU, BCAT1 / Fold change vs veh, BCAT1 / RFU, EDEM3 / Fold change vs veh, EDEM3 / RFU, TMEM33 / Fold change vs veh, TMEM33 / RFU, WDR75 / Fold change vs veh, WDR75 / RFU, AHCTF1 / Fold change vs veh, AHCTF1 / RFU, TFRC / Fold change vs veh, TFRC / RFU, ZDHHC17 / Fold change vs veh, ZDHHC17 / RFU, NOM1 / Fold change vs veh, NOM1 / RFU, ARL8B / Fold change vs veh, ARL8B / RFU, ZBTB11 / Fold change vs veh, ZBTB11 / RFU, TAMM41 / Fold change vs veh, TAMM41 / RFU, KIAA1704 /// LOC100996395 / Fold change vs veh, KIAA1704 /// LOC100996395 / RFU, ING1 / Fold change vs veh, ING1 / RFU, TRMT61B / Fold change vs veh, TRMT61B / RFU, FUBP3 / Fold change vs veh, FUBP3 / RFU, TP53 / Fold change vs veh, TP53 / RFU, TNKS2 / Fold change vs veh, TNKS2 / RFU, ZFP14 / Fold change vs veh, ZFP14 / RFU, ACTR2 / Fold change vs veh, ACTR2 / RFU, PPP3R1 / Fold change vs veh, PPP3R1 / RFU, PIK3R1 / Fold change vs veh, PIK3R1 / RFU, HNRNPA1 / Fold change vs veh, HNRNPA1 / RFU, RNF170 / Fold change vs veh, RNF170 / RFU, ZNF28 / Fold change vs veh, ZNF28 / RFU, RNGTT / Fold change vs veh, RNGTT / RFU, OGT / Fold change vs veh, OGT / RFU, BRD1 / Fold change vs veh, BRD1 / RFU, MARS / Fold change vs veh, MARS / RFU, ZNF655 / Fold change vs veh, ZNF655 / RFU, FAHD1 / Fold change vs veh, FAHD1 / RFU, BDP1 / Fold change vs veh, BDP1 / RFU, LRRCC1 / Fold change vs veh, LRRCC1 / RFU, ARID1A / Fold change vs veh, ARID1A / RFU, ZNF146 / Fold change vs veh, ZNF146 / RFU, ZNF330 / Fold change vs veh, ZNF330 / RFU, GPN3 / Fold change vs veh, GPN3 / RFU, C9orf123 / Fold change vs veh, C9orf123 / RFU, N4BP2L2 / Fold change vs veh, N4BP2L2 / RFU, ARFIP1 / Fold change vs veh, ARFIP1 / RFU, FAM179B / Fold change vs veh, FAM179B / RFU, BCL10 / Fold change vs veh, BCL10 / RFU, UHRF1BP1L / Fold change vs veh, UHRF1BP1L / RFU, BET1 / Fold change vs veh, BET1 / RFU, CNOT2 / Fold change vs veh, CNOT2 / RFU, ZNF268 / Fold change vs veh, ZNF268 / Fold change vs veh, ZNF507 / RFU, DGCR2 / Fold change vs veh, DGCR2 / RFU, WDSUB1 / Fold change vs veh, WDSUB1 / Fold change vs veh, HSP90B1 /// MIR3652 / RFU, ADSS / Fold change vs veh, ADSS / RFU, GK / Fold change vs veh, GK / RFU, ZNF148 / Fold change vs veh, ZNF148 / RFU, TAF9 / Fold change vs veh, TAF9 / RFU, SLC1A5 / Fold change vs veh, SLC1A5 / RFU, SLMO2 / Fold change vs veh, SLMO2 / RFU, ABCC4 / Fold change vs veh, ABCC4 / RFU, LOC101060439 /// RAP1B / Fold change vs veh, LOC101060439 /// RAP1B / RFU, RFX7 / Fold change vs veh, RFX7 / RFU, GTPBP10 / Fold change vs veh, GTPBP10 / RFU, CNEP1R1 / Fold change vs veh, CNEP1R1 / RFU, BIVM-ERCC5 /// ERCC5 / Fold change vs veh, BIVM-ERCC5 /// ERCC5 / RFU, ILF3 / Fold change vs veh, ILF3 / RFU 11762660_at / Fold change /veh 11762660_at / RFU VCAN (11757783_s_at) / Fold change /veh VCAN (11757783_s_at) / RFU DDX43 (11728927_at) / Fold change /veh DDX43 (11728927_at) / RFU KRT8 (11758188_x_at) / Fold change /veh KRT8 (11758188_x_at) / RFU NKD1 (11759106_at) / Fold change /veh NKD1 (11759106_at) / RFU SRD5A1 (11742802_a_at) / Fold change /veh SRD5A1 (11742802_a_at) / RFU TPSAB1 /// TPSB2 (11721975_s_at) / Fold change /veh TPSAB1 /// TPSB2 (11721975_s_at) / RFU GSTM3 (11746129_a_at) / Fold change /veh GSTM3 (11746129_a_at) / RFU IL23R (11737362_x_at) / Fold change /veh IL23R (11737362_x_at) / RFU TMEM51 (11727254_a_at) / Fold change /veh TMEM51 (11727254_a_at) / RFU PIWIL2 (11732686_x_at) / Fold change /veh PIWIL2 (11732686_x_at) / RFU ORM1 (11744905_x_at) / Fold change /veh ORM1 (11744905_x_at) / RFU CCDC152 (11743942_at) / Fold change /veh CCDC152 (11743942_at) / RFU ECM1 (11717891_a_at) / Fold change /veh ECM1 (11717891_a_at) / RFU IL23R (11748794_a_at) / Fold change /veh IL23R (11748794_a_at) / RFU TNFAIP8L3 (11732012_x_at) / Fold change /veh TNFAIP8L3 (11732012_x_at) / RFU MBOAT4 (11741988_at) / Fold change /veh MBOAT4 (11741988_at) / RFU 11764193_at / Fold change /veh 11764193_at / RFU TMEM53 (11763286_at) / Fold change /veh TMEM53 (11763286_at) / RFU MAGEB2 (11727129_at) / Fold change /veh MAGEB2 (11727129_at) / RFU TMEM200A (11744735_a_at) / Fold change /veh TMEM200A (11744735_a_at) / RFU CCDC152 (11751479_a_at) / Fold change /veh CCDC152 (11751479_a_at) / RFU FAM211A (11726209_a_at) / Fold change /veh FAM211A (11726209_a_at) / RFU RGS16 (11746705_a_at) / Fold change /veh RGS16 (11746705_a_at) / RFU VCAN (11755009_s_at) / Fold change /veh VCAN (11755009_s_at) / RFU RHOB (11743442_s_at) / Fold change /veh RHOB (11743442_s_at) / RFU RGS16 (11720943_a_at) / Fold change /veh RGS16 (11720943_a_at) / RFU RGS16 (11720944_at) / Fold change /veh RGS16 (11720944_at) / RFU, VPS4B / Fold change vs veh, VPS4B / RFU, CREB1 / Fold change vs veh, CREB1 / RFU, DNAJC13 / Fold change vs veh, DNAJC13 / RFU, GNAQ / Fold change vs veh, GNAQ / RFU, CDK5R1 / Fold change vs veh, CDK5R1 / RFU, ZRANB3 / Fold change vs veh, ZRANB3 / RFU, CUL4A / Fold change vs veh, CUL4A / RFU, CCNY / Fold change vs veh, CCNY / RFU, UFL1 / Fold change vs veh, UFL1 / RFU, COG3 / Fold change vs veh, COG3 / RFU, DIAPH2 / Fold change vs veh, DIAPH2 / RFU, SKA2 / Fold change vs veh, SKA2 / RFU, AFF3 / Fold change vs veh, AFF3 / RFU, LMF1 / Fold change vs veh, LMF1 / RFU, IPO11 / Fold change vs veh, IPO11 / RFU, DFFB / Fold change vs veh, DFFB / RFU, FOXP1 / Fold change vs veh, FOXP1 / RFU, CARD8 / Fold change vs veh, CARD8 / RFU, STRN3 / Fold change vs veh, STRN3 / RFU, ADK / Fold change vs veh, ADK / RFU, RASSF2 / Fold change vs veh, RASSF2 / RFU, WIPF1 / Fold change vs veh, WIPF1 / RFU, LARP1B / Fold change vs veh, LARP1B / RFU, RASA1 / Fold change vs veh, RASA1 / RFU, RB1 / Fold change vs veh, RB1 / RFU, PPFIA1 / Fold change vs veh, PPFIA1 / RFU, MAT2A / Fold change vs veh, MAT2A / RFU, CCT5 / Fold change vs veh, CCT5 / RFU, WDR92 / Fold change vs veh, WDR92 / RFU, CUX1 / Fold change vs veh, CUX1 / RFU, TTC7A / Fold change vs veh, TTC7A / RFU, TMEM135 / Fold change vs veh, TMEM135 / RFU, DEPTOR / Fold change vs veh, DEPTOR / RFU, CPM / Fold change vs veh, CPM / RFU, DNAJB6 / Fold change vs veh, DNAJB6 / RFU, CACNA2D3 / Fold change vs veh, CACNA2D3 / RFU, DTX4 / Fold change vs veh, DTX4 / RFU, TFCP2 / Fold change vs veh, TFCP2 / RFU, GMCL1 /// GMCL1P1 / Fold change vs veh, GMCL1 /// GMCL1P1 / RFU, AEBP2 / Fold change vs veh, AEBP2 / RFU, SNHG1 /// SNORD22 /// SNORD25 /// SNORD26 /// SNORD27 /// SNORD28 /// SNORD29 /// SNORD31 / Fold change vs veh, SNHG1 /// SNORD22 /// SNORD25 /// SNORD26 /// SNORD27 /// SNORD28 /// SNORD29 /// SNORD31 / Fold change (Aza/veh), C12orf56 (ProbeSet 11735607_a_at) / Fold change (ACY-1035/veh), C12orf56 (ProbeSet 11735607_a_at) / Fold change (Aza/veh), FGFR1OP (ProbeSet 11751329_s_at) / Fold change (ACY-1035/veh), FGFR1OP (ProbeSet 11751329_s_at) / Fold change (Aza/veh), VPS36 (ProbeSet 11739960_a_at) / Fold change (ACY-1035/veh), VPS36 (ProbeSet 11739960_a_at) / RFU SYPL1 (11715823_x_at) / Fold change /veh SYPL1 (11715823_x_at) / RFU IGFBP7 (11715501_s_at) / Fold change /veh IGFBP7 (11715501_s_at) / RFU REEP3 (11722064_at) / Fold change /veh REEP3 (11722064_at) / RFU IGLL1 (11728026_x_at) / Fold change /veh IGLL1 (11728026_x_at): dose or concentration left out as unconfirmed
Conditions: MV-4-11 cells, 48 hours

Nc1ccc(-c2cccs2)cc1NC(=O)c1ccc2c(c1)cc(C1CC1)n2CCN1CCOCC1 [ACY-1035]
Fold change /veh FAM212B (11763350_a_at): 1.09

Source: paper PMC5218480 (PLoS ONE, 2017)
